What was measured:
[1] = target: T1, full-length NS3/4A genotype 1b mutant R155K (Hepatitis C virus genotype 1b, UniProt Q9WMX2, R1181K); experiment: Inhibition assay with drug-resistant mutant R155K; assay type: biochemical
T1 construct: wild-type HCV NS3 (HCV polyprotein residues 1027–1657); His-tag (N); made in house
Description: (§1) The full-length genes of wild-type HCV NS3 (HCV polyprotein residues 1027–1657) with a his-tag at the N-terminus and NS4A (residues 1658–1711) with no tag were cloned, co-expressed, and purified as described. Eight NS3 drug resistant mutants (V36M, V36A, T54A, R155K, R155T, A156T, A156S, and 156V) were generated by mutagenesis using full-length, wild-type NS3-containing recombinant plasmid (pETDuet-1/FL NS3/4A) as a template. The over-expression and purification of all mutants were performed by the same method as the wild-type with minor modifications.
(§2) The inhibitory activity of the final hit compounds from HTS were tested against three other HCV genotypes (1a, 2a, and 4d), along with a control (genotype 1b) and five NS3 drug-resistant mutants. Eight full-length NS3 mutants (V36M, R155K, A156T, A156S, 156V, V36A, T54A, and R155T) were generated by mutagenesis and purified, and the three HCV NS3/4A protease genotypes were purchased from Anaspec. Unfortunately the enzyme activities of the three mutants V36A, T54A, and R155T were much less than that of the rest of the mutants and were insufficient for testing, therefore mutant studies were done with the five active mutants. Continuous kinetic assays were performed against all hit compounds in the same way as the wild-type NS3/4A. […]

[2] = target: T2, full-length NS3/4A genotype 1b mutant A156S (Hepatitis C virus genotype 1b, UniProt Q9WMX2, A1182S); experiment: Inhibition assay with drug-resistant mutant A156S; assay type: biochemical
T2 construct: wild-type HCV NS3 (HCV polyprotein residues 1027–1657); His-tag (N); made in house
Description: as §1, §2

[3] = target: T3, NS3/4A protease genotype 1a (Hepatitis C virus genotype 1a, UniProt P27958); experiment: Inhibition assay with NS3/4A from genotype 1a; assay type: biochemical; settings: IC50 NS3/4A genotype 1a
T3 construct: against the NS3/4A protease domains from three additional HCV genotypes (1a, 2a, and 4d); purchased Anaspec
Description: (§3) The inhibitory activity of the final hit compounds from HTS were tested against three other HCV genotypes (1a, 2a, and 4d), along with a control (genotype 1b) and five NS3 drug-resistant mutants. Eight full-length NS3 mutants (V36M, R155K, A156T, A156S, 156V, V36A, T54A, and R155T) were generated by mutagenesis and purified, and the three HCV NS3/4A protease genotypes were purchased from Anaspec. Unfortunately the enzyme activities of the three mutants V36A, T54A, and R155T were much less than that of the rest of the mutants and were insufficient for testing, therefore mutant studies were done with the five active mutants. Continuous kinetic assays were performed against all hit compounds in the same way as the wild-type NS3/4A. As a control, full-length NS3/4A (genotype 1b) was tested under the same conditions for direct comparison for each plate.

[4] = target: T4, full-length NS3/4A genotype 1b mutant A156T (Hepatitis C virus genotype 1b, UniProt Q9WMX2, A1182T); experiment: Inhibition assay with drug-resistant mutant A156T; assay type: biochemical
T4 construct: wild-type HCV NS3 (HCV polyprotein residues 1027–1657); His-tag (N); made in house
Description: as §1, §2

[5] = target: NS3/4A protease genotype 4d (Hepatitis C virus subtype 4d, UniProt Q1ZZ56); experiment: Inhibition assay with NS3/4A from genotype 4d; assay type: biochemical
Description: as §3

[6] = target: T5, NS3/4A protease genotype 2a (Hepatitis C virus genotype 2a, UniProt Q99IB8); experiment: Inhibition assay with NS3/4A from genotype 2a; assay type: biochemical
T5 construct: against the NS3/4A protease domains from three additional HCV genotypes (1a, 2a, and 4d); purchased Anaspec
Description: as §3

[7] = target: T6, full-length NS3/4A protease (genotype 1b) (Hepatitis C virus genotype 1b, UniProt Q9WMX2); experiment: biochemical
T6 construct: wild-type HCV NS3 (HCV polyprotein residues 1027–1657); His-tag (N); made in house
Description: All assays were done in duplicate in black 384-well plates (Matrix Technologies). […] 200 nL of 10 mM compound (50 µM final concentrations) were then added and incubated for 5 minutes. Enzyme reactions were initiated with 10 µL of substrate Ac-DE-Dap(QXL520)-EE-Abu-ψ-[COO]AS-C(5-FAMsp)-NH2 (Anaspec) (1 µM final concentration), incubated for 6 minutes, and quenched by 10 µL of 10% SDS as a stop solution. Fluorescence intensity was monitored with a POLARstar OPTIMA microplate reader (BMG LABTECH). Each plate contained a total of 32 positive and 32 negative controls.
A series of compound concentrations (0 to 200 µM final concentration at 2-fold serial dilution) in 100% DMSO were prepared in a 384-well plate. 20 µL of enzyme solution was distributed to wells, and 0.5 µL of varying concentration of compounds were added and incubated for 5 minutes. The enzyme reaction was initiated by adding 5 µL of the substrate, and its activity was continuously monitored for 6 minutes. The IC50 values were calculated by fitting with the Hill equation (1), with OriginPro 8.5 (OriginLab, Inc.) where y is percent inhibition, x is inhibitor concentration, n is the slope of the concentration–response curve (Hill slope), and Vmax is maximal inhibition from two to four independent assays. [drawing 1] (1)

[8] = Microsomal stability assay; assay type: in vitro ADME, mouse
Description: A typical incubation mixture (100 µL total volume) for the metabolic stability studies contained 1 µM (final concentration) test compounds, 0.5 mg/mL microsomal protein (pooled Balb/c mouse liver microsomes prepared as described previously), 100 mM Tris-HCl buffer (pH7.4), and NADPH-generating system (5 mM isocitric acid, 0.2 unit/mL isocitric acid dehydrogenase, 5 mM magnesium chloride, 1 mM NADP^+). After pre-incubation at 37°C for 5 minutes, the reactions were started by addition of NADP^+ and further incubated for another 0, 5, 10, and 20 minutes. For control experiments, NADPH and/or liver microsomes were omitted from these incubations. The reactions were terminated by adding 100 µL ice-cold acetonitrile containing phenytoin (1 µM) as an internal standard and kept on ice for 30 minutes, followed by centrifugation at 16,100 g for 15 minutes to obtain the supernatant. Aliquots (5 µL) were then analyzed for substrate disappearance using liquid chromatography-tandem mass spectrometry (Agilent 1200 HPLC interfaced with Applied Biosystems Qtrap 3200) equipped with an electrospray ion source. Chromatographic separation was carried out with a Waters XTerra MS C18 column (2.1×50 mm, 3.5 µm; Agilent Technologies, Santa Clara, CA). The mobile phases consisted of solvent A (0.1% (v/v) aqueous formic acid) and solvent B (acetonitrile). A 250 µL/min flow rate gradient was developed for each test compound over 10 minutes (Table S2 in File S1). Mass detection of test substrates and internal standard were followed in a positive ion mode by examining multiple reaction monitoring (MRM) pairs. The spraying needle voltage was set at 5000 V. Curtain gas was set at 20; gas 1 and gas 2 were set at 45 and 50, respectively; collision assisted dissociation gas was at medium; and the source heater probe temperature was at 500°C. The test compounds were quantified by comparing the ratio of ion currents obtained for the substrates and an internal standards calibration curve. Data acquisition and processing were accomplished using Analyst software (version 1.4.1; Applied Biosystems). Apparent half-lives (t1/2) for the disappearance of parent drugs were calculated from the pseudo-first-order rate constants (ke) obtained by linear regression of plots of log [drug remaining] versus time (GraphPad Prism 5 software, La Jolla, CA) using the equation: t1/2 = 0.693/ke.

## Cc1cc(NC(=O)Cc2csc(NS(=O)(=O)c3ccccc3)n2)ccc1Br [Compound 12]
[1]
  IC50: ≤ 20 µM
[2]
  IC50: ≤ 20 µM
[3]
  IC50: < 20 µM
[4]
  IC50: ≤ 20 µM
[5]
  IC50: < 20 µM
[6]; IC50 Purified NS3/4A Sub-genotype 2a, genotype 2a
  IC50: 12.7 ± 1.2 µM
[6]; purified enzymes
  fold less effective against genotype 2a than 1b in the biochemical assay: ~6 fold
[7]; calculated with IC50 values from the full-length NS3/4A
  LE: 0.29 kcal/mol/heavy atom
[7]; purified full-length NS3/4A, genotype 1b wild-type, read-out: IC50 Full-length NS3/4A
  IC50: 2.2 ± 0.4 µM
[8]; Balb/c, pH 7.4, mouse liver microsomes 0.5 mg/mL, 1 µM compound, NADPH-generating system, read-out: Microsomal stability t1/2
  half-life at 1 µM: 21.7 min
[8]; mouse liver microsomes, rounded values
  microsomal stability: 22 min

Source: publication PMC3793977, “High-Throughput Screening (HTS) and Hit Validation to Identify Small Molecule Inhibitors with Activity against NS3/4A proteases from Multiple Hepatitis C Virus Genotypes” (PLoS ONE, 2013)
